The assay concerns rat liver microsome lipid peroxidation. The experiment in a line: Antioxidation action test in rat liver microsome (microsome lipid peroxidation measuring system, TBARS generation). To be noted: for antioxidation action: microsome lipid peroxidation measuring system using a rat liver microsome, result in words; for IC50: rat liver microsome, NADPH 500 μM + ferrous sulfate 50 μM, 20 minutes reaction, 37° C., n=2, nonlinear regression, read-out: IC50 (TBARS generation suppressing action). The assay is classed as biochemical. How it is done:
1. Antioxidation Action Test in Rat Liver Microsome
Using a microsome lipid peroxidation measuring system, an antioxidation action of a test compound was evaluated. This test quantifies a thiobarbituric acid reaction substance (TBARS) that is generated by a lipid peroxidation reaction caused by adding nicotinamide adenine dinucleotide phosphoric acid and ferrous sulfate to a microsome. To this system, a test compound is added, and a TBARS generation suppressing action by the test compound is evaluated as an antioxidation action. This method is a general method for measuring an antioxidation action of a compound or the like (Reference document: Yakugaku Zasshi 119, 93-99 (1999), Biochimica et Biophysics Acta, 1046, (1990) 207-213, Chemistry & Biology Experiment line 2, lipid peroxidation experimental method (Hirokawa shoten)).
A buffer solution was prepared by mingling to achieve 25 mM tris(hydroxymethyl)aminomethane (Tris) (pH 7.4) and 150 mM potassium chloride (KCl).
Ferrous sulfate (FeSO4.7H2O) was dissolved in distilled water to prepare a 5 mM solution.
Nicotinamide adenine dinucleotide phosphoric acid (NADPH) was dissolved in distilled water to prepare a 50 mM solution.
Ethylenediaminetetraacetic acid (EDTA) was dissolved in distilled water to prepare a 200 mM solution.
Five μL of a commercially available rat liver microsome [XENOTECH, catalog No. R1000 (20 mg protein/mL)] was used.
As a test compound, Compound A which is an inventive compound [1-[6-(4-cyclopropyl-1H-indazol-5-yl)pyridin-3-yl]-1-ethylenepropylamine hydrochloride (Example compound 2)], and Compound B having a similar compound structure [1-[6-(4-cyclopropyl-1H-indazol-5-yl)pyridin-3-yl]-1-methyl ethyl amine hydrochloride (synthesized according to a method described in European Patent Publication No. 1679308)] were used. Ten mM test compound solutions were prepared by dissolving 1.3 mg of Compound A in 0.315 mL of dimethyl sulfoxide (DMSO), and dissolving 2.15 mg of Compound B in 0.554 mL of dimethyl sulfoxide (DMSO).
[drawing 8] (Evaluation Method) 1) A test compound solution (5 μL) was put into a reaction tube. […] 7) A thiobarbituric acid reaction substance (TBARS) generation value in the reaction completed solution was measured using a commercially available TBARS measuring kit [Cayman, Catalog No. 10009055].
As a non-lipid peroxidation reaction group, a test was conducted by adding distilled water in place of nicotinamide adenine dinucleotide phosphoric acid and ferrous sulfate, and a TBARS generation value was measured. The number of examples of each group is n=2, and the TBARS generation suppressing rate (%) was calculated from an average value of n=2 according to the following formula 1, and IC50 of the test compound was measured by nonlinear regression of statistical analysis software (EXSAS). […]

Where a name gives a salt, the structure may show the parent alone.

Turning to `CCC(N)(CC)c1ccc(-c2ccc3[nH]ncc3c2C2CC2)nc1` [Compound A, 1-[6-(4-cyclopropyl-1H-indazol-5-yl)pyridin-3-yl]-1-ethylpropylamine hydrochloride], the antioxidation action result is reported as “exhibited a strong antioxidation action” and the IC50 amounted to 3.8 µM.

As to `CC(C)(N)c1ccc(-c2ccc3[nH]ncc3c2C2CC2)nc1` [Compound B, 1-[6-(4-cyclopropyl-1H-indazol-5-yl)pyridin-3-yl]-1-methyl ethyl amine hydrochloride], the antioxidation action result is “did not exhibit a strong antioxidation action” and the IC50 was greater than 100 µM.
